This is an account of results in patent US20020143059A1, “Skin care product containing retinoids, retinoid booster and phytoestrogens in a dual compartment package” (priority 2000, published 2002).

The nature of series [1]: Retinol stability in the presence of boosters (OD 360 nm). It counts as physicochemical. As to conditions: booster approximately 0.1%, 60 hours at room temperature in the dark, approx. 50% aqueous ethanol. How it is done:
Retinol (50% in tween 80) was dissolved in approximately 50% aqueous ethanol to provide a solution giving an OD at 360 nm of approximately 0.6 when measured in a 200 μl volume in a 96 well plate using a standard 96 well spectrophotometer.
Booster molecules were added at approximately 0.1% concentration and the OD 360 measured as above immediately and after 60 hours at room temperature in the dark. A correction was applied to the OD after 60 hours (divide by 0.85) to account for increased concentration of the retinol due to evaporation of solvent from the plate.

For another series, the system named is TGase I. Description: Transglutaminase (TGase I ELISA) assay in cultured keratinocytes. It counts as cell-based. As to conditions: for IC50: booster in combination with a constant retinol concentration of 10^−7M, read-out: Overall TG (IC 50); for % Inhibition Overall TG (−ROH/RE): added effect of booster+retinol induced TGase inhibition over retinol alone. For orientation: ELISA stands for enzyme-linked immunosorbent assay.

For another series, the system named is Retinal Reductase. Kind of series: Assay for Retinal Reductase Activity, liver microsomes. It counts as biochemical, rat. As to conditions: test compound final 100 μM (method). (Liver microsomes are a subcellular fraction often used to study metabolism.)
In another series the test system is ARAT. Description: Assay for ARAT activity, RPE microsomes. It counts as biochemical, bovine. As to conditions: for % Inhibition ARAT (100 μm): 100 μm compound.
A further series concerns CRABP-II. Kind of series: CRABP-II expression in adult fibroblasts (dot blot). It counts as cell-based, human. As to conditions: for CRABP-II production / % as Control: 1 μM phytoestrogen alone; for % as Control: control as 100%.
The nature of series [2]: Retinol stability in the presence of phytoestrogenic flavonoids (OD 360 nm). It counts as physicochemical. How it is done:
Retinol was dissolved as a 10% solution in aqueous ethanol (1:1 water:ethanol). This solution was diluted to 0.001% approximately 30 μM). This solution gave an OD of about 0.35 absorption unit at 360 nm in a 96 well plate spectrophotometer.
Aqueous ethanolic stock solutions of the genistein, daidzein were prepared as 0.1%, 0.01% or 0.001%. To 200 μl of 0.001% retinol solution in a 96 well plate was added 20 μl of the flavonoid (i.e. 1-10 dilution) giving a final flavonoid concentration of 0.01, 0.001 and 0.0001%. The plates were mixed and an initial OD reading was taken at 360 nm. The plates were incubated at room temperature in the dark for up to 2 days and subsequent readings were taken at 8, 24 and 48 hours. The OD readings at these time points were normalized to the 0 time point reading. The retinol stability was expressed as % of retinol (OD reading) at 0 time. The data is shown in example 5.
Example 5: The following tables show the effect of genistein and daidzein on destabilizing retinol. The experiment was done as described in methods section. The OD readings from duplicate measurements were averaged and given here.

The next series relates to Retinol Dehydrogenase. Kind of series: Assay for Retinol Dehydrogenase Activity, liver microsomes. It counts as biochemical, rat. As to conditions: test compound final 100 μM (method). How it is done:
2.2 Isolation of rat liver microsomes (modified from R. Martini & M. Murray, “Participation of P450 3A Enzymes in Rat Hepatic Microsomal Renitoic Acid 4-Hydroxylation”, Archives Biochem. Biophys. 303, 57-66 (1993)).
The resulting homogenate was successively centrifuged for 30 min. at 10,000 g, 30 min. at 20,000 g, and 15 min. at 30,000 g, and the resulting supernatant was ultracentrifuged for 80 min. at 105,000 g. […] Protein concentrations were determined as described above.
2.4 Assay for Retinol Dehydrogenase Activity (To identify B2)
The following stock solutions were prepared:
50 mM KH2PO4, pH 7.4 buffer, sterile filtered.
10 mM all trans Retinol (Sigma R7632) in DMSO.
200 mM Nicotinamide adenine dinucleotide phosphate, sodium salt (NADP) (Sigma N0505) in sterile water.
40 mM test compound in appropriate solvent (water, buffer, ethanol, chloroform or DMSO).
1:10 dilution of rat liver Microsomes in 50 mM KH2PO4, pH 7.4 buffer (4 ug/ul).
In a two-dram glass vial with screw cap, add the following in order:
Buffer to give a final volume of 400 μl […]
Aliquots of 60 μL were injected immediately and analyzed for retinoid content.
The chromatography instrumentation consisted of a Waters 600 gradient controller/pump, a Waters 996 Photodiode Array detector and a Waters 474 Scanning Fluorescence detector. […] The eluate was monitored for absorbance at 325 nm and fluorescence at 325 ex/480 em. […]

Another series has as its target T1, LRAT (Bos taurus, UniProt Q9BGL2).
T1 construct: followed by approximately 15 μg of RPE microsomal protein; tissue W. L. Lawson Co., Lincoln, Nebr; host or cells: bovine retinal pigment epithelium microsomes
T1 sequence (Q9BGL2 1-230): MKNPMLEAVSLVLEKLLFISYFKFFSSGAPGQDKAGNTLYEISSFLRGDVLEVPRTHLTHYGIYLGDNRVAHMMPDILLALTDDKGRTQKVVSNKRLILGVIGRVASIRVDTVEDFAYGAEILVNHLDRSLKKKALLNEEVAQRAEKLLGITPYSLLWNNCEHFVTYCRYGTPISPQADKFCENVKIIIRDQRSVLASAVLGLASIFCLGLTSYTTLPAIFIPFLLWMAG
Description: Assay for LRAT activity, RPE microsomes. It counts as biochemical, bovine.

Like-named read-outs stand apart in the source and are kept apart here.

Description for ARAT: 50 frozen hemisected bovine eyecups, with the retina and aqueous humor removed were obtained from W. L. Lawson Co., Lincoln, Nebr., USA. The eyes were thawed overnight and the colored iridescent membrane was removed by peeling with forceps. […] The cell suspension was added to the iridescent membranes and the suspension was stirred for several minutes in a beaker with a Teflon stir bar. […] The cell homogenate was centrifuged for 30 min. at 20,000 g (Sorvaal model RC-5B centrifuge with an SS34 rotor in 2.5×10 cm tubes at 14,000 RPM). The resulting supernatant was subjected to further centrifugation for 60 min. at 150,000 g (Beckman model L80 Ultracentrifuge with an SW50.1 rotor in 13×51 mm tubes at 40,000 RPM). The resulting pellets were dispersed into ˜5 mL 0.1M PO4/5 mM DTT, pH 7 buffer using a Heat Systems Ultrasonics, Inc. model W185D Sonifier Cell Disruptor, and the resulting microsomal dispersion was aliquoted into small tubes and stored at −70° C. The protein concentrations of the microsomes were determined using the BioRad Dye binding assay, using BSA as a standard.
2.3 Assay for ARAT and LRAT activity (To identify B1)
The following buffer was prepared and stored at 4° C.: 0.1M PO4/5 mM dithiothreitol, pH 7.0 (PO4/DTT). On the day of the assay, add 2 mg BSA per mL of buffer to give a PO4/DTT/BSA working buffer. 1 mM retinol substrate was prepared in acetonitrile and stored in amber bottles under nitrogen gas at −20° C. Solutions of 4 mM Palmitoyl-CoA in working buffer (stored in aliquots) and 4 mM dilauroyl phosphatidyl choline in ethanol were prepared and stored at −20° C. Inhibitors were prepared as 10 mM stock solutions in H2O, ethanol, acetonitrile or DMSO. The quench solution was prepared using pure ethanol containing 50 μg/mL butylated hydroxytoluene (BHT), and a hexane solution containing 50 μg/mL BHT was used for the extractions.
Incubate for 5 min. at 37° C. to equilibrate the reaction temperature and then add 5 μL 1 mM retinol. Cap the vials, vortex for 5 seconds and incubate for 30-90 minutes at 37° C. Quench the reaction by adding 0.5 mL ethanol/BHT. Extract the retinoids by adding 3 mL hexane/BHT, vortex the tubes for several seconds several times and centrifuge the tubes at low speed for 5 min. to quickly separate the layers. […] Quantitate the amount of retinyl palmitate and retinyl laurate for ARAT and LRAT activity, respectively, by integration of the HPLC signal as described below. […]
(§1) Samples for retinoid quantitation by HPLC were prepared by dissolving the residue in each vial with 100 μL of methanol. […] Aliquots of 60 μL were injected immediately and analyzed for retinoid content.
(§2) Two HPLC protocols were used for retinoid analysis. […] The column eluate was monitored from 300 nm to 400 nm. […]
Description for CRABP-II: Cells were grown in 1:1 DMEM/Hams F12 media containing 10% FBS, maintained at 37° C. in a 5% CO2 atmosphere under normal atmosphere oxygen tension. Third passage adult fibroblasts were grown in DMEM media with 10% FBS in 12-well plates at a seeding density of 2500 cells/ml/well. The cells at 80% confluence were rinsed in serum free and phenol red free (PRF) DMEM media twice. Pre-treatment with phyto-compounds for 4 hours was conducted and then dosed with retinoids and was incubated for 48 hours. After the incubation, the wells were washed twice with 1×PBS and the cell monolayer was harvested in 100 μl cell lysis buffer (contains 1×PBS, 1% Triton X, 0.5% sodium deoxycholate, 0.1% SDS containing protease inhibitor (10 mg/ml PMSF in isopropanol, 10 μl/ml). The suspension was spun at 14000 rpm for 10 minutes, the supernatant collected and an aliquot of this supernatant was used for protein quantification. Protein concentration was determined using Pierce protein kit. The remainder of 100 μl supernatant (cell lysate) was denatured in a mixture of 40 μl sample buffer (NOVEX) and 0.5% Beta mercaptoethanol (BME) and by boiling the sample for 5 minutes.
To measure the levels of CRABP-II in the fibroblasts, the equal amount of protein of cell supernatant were loaded onto to nitrocellulose blots in a dot blot apparatus as instructed by the manufactorer, and immunostaining was carried out using monoclonal antibodies to CRABP-II according to standard procedures. The CRABP-II protein band was visualized in the Dot Blots using the chemiluminescence system obtained from Santa Cruz Biotechnology (SantaCruz, Calif.). The bands in the film were quantitated by dens tometric scanning, the data from the triplicate samples were calculated as % of control and expressed in the following tables as % increase over control (with control as 100%) +/−SD triplicates.
Description for LRAT: 50 frozen hemisected bovine eyecups, with the retina and aqueous humor removed were obtained from W. L. Lawson Co., Lincoln, Nebr., USA. The eyes were thawed overnight and the colored iridescent membrane was removed by peeling with forceps. […] The cell suspension was added to the iridescent membranes and the suspension was stirred for several minutes in a beaker with a Teflon stir bar. […] The cell homogenate was centrifuged for 30 min. at 20,000 g (Sorvaal model RC-5B centrifuge with an SS34 rotor in 2.5×10 cm tubes at 14,000 RPM). The resulting supernatant was subjected to further centrifugation for 60 min. at 150,000 g (Beckman model L80 Ultracentrifuge with an SW50.1 rotor in 13×51 mm tubes at 40,000 RPM). […] The protein concentrations of the microsomes were determined using the BioRad Dye binding assay, using BSA as a standard. […]
Incubate for 5 min. at 37° C. to equilibrate the reaction temperature and then add 5 μL 1 mM retinol. […] Quantitate the amount of retinyl palmitate and retinyl laurate for ARAT and LRAT activity, respectively, by integration of the HPLC signal as described below. […]
as §1, §2
Description for Retinal Reductase: 2.5 Assay for Retinal Reductase Activity (To identify B3)
All stock solution were prepared as above with the following substitutions:
10 mM all trans Retinaldehyde (Sigma R2500) in DMSO—instead of retinol.
200 mM, Nicotinamide adenine dinucleotide phosphate, reduced form, tetrasodium salt (NADPH) (Sigma N7505) in sterile water—instead of NADP.
25 μl diluted Microsomes (final=100 μg)—use boiled Microsomes for controls and regular Microsomes for test samples.
4 μl of 200 mM NADPH (final=2 mM)
1 μl of 40 mM test compound (final=100 μM)
Follow the same incubation and extraction procedure as detailed above.
as §1
Two HPLC protocols were used for retinoid analysis. […] This system consisted of a 20 min. linear gradient from 68:32 (v/v) methanol/ water containing 10 mM ammonium acetate to 4:1 (v/v) methanol:dichloromethane followed by a 5 min. hold at a flow rate of 1 mL/min. The column eluate was monitored from 300 nm to 400 nm.
Description for TGase I: Transglutaminase Assay and Keratinocyte Differentiation
An ELISA based TGase I assay, using a TGase I antibody, was used to assess the state of differentiation of the cultured keratinocytes in the examples that follow.
Keratinocytes (cultured as described above) were plated in 96 well plates at a density of 4,000-5,000 cells per well in 200 μl media. After incubation for two to three days, or until cells are ˜50% confluent, the media was changed to media containing test compounds (five replicates per test). The cells were cultured for a further 96 hours after which time the media was aspirated and the plates stored at −70° C. Plates were removed from the freezer, and the cells were washed twice with 200 μl of 1×PBS. The cells were incubated for one hour at room temperature (R/T) with TBS/5% BSA (wash buffer, bovine serum albumin). Next the TGase primary antibody was added: 50 μl of monoclonal anti-Tgase I Ab B.C. diluted 1:2000 in wash buffer. The primary antibody was incubated for 2 hours at 37° C. and then rinsed 6× with wash buffer. Cells were then incubated with 50 μl of secondary antibody (Fab fragment, peroxidase conjugated anti-mouse IgG obtaining from Amersham) diluted 1:4,000 in wash buffer for two hours at 37° C., then rinsed three times with wash buffer. Following the rinse with washing buffer, the cells were rinsed 3× with PBS. For colourimetric development, the cells were incubated with 100 μl substrate solution (4 mg o-phenylenediamine and 3.3 μl 30% H2O2 in 10 ml 0.1M citrate buffer pH 5.0) for exactly five minutes, R/T, in darkness (under aluminum foil). The reaction was stopped by the addition of 50 μl 4N H2SO4. […] Out of the five replicates, four were treated with both antibodies, the fifth one was use as a Tgase background control. TGase levels were determined and expressed as percentage control.
(i) % (booster+retinol inhibition/control inhibition)−% (ROH inhibition/control inhibition), which measures the added effect of booster+retinol induced TGase inhibition over retinol alone, or

For the compound `O=c1ccc2ccccc2o1` [COUMARIN], in series [1], the “FOLD INCREASE IN RATE OF RETINOL LOSS” value is given as 1.4 fold.

Regarding `CC1(C)[C@@H](O)CC[C@]2(C)[C@H]3C(=O)C=C4[C@@H]5C[C@@](C)(C(=O)O)CC[C@]5(C)CC[C@@]4(C)[C@]3(C)CC[C@@H]12` [Glycyrretinic Acid], the “FOLD INCREASE IN RATE OF RETINOL LOSS” value in series [1] was found to be 1.6 fold. In addition, the IC50 in the series with TGase I (Keratinocyte) is 8.64 µM.

In the case of `CCCCC/C=C\C/C=C\CCCCCCCC(=O)O` [Linoleic Acid], in the series with Retinal Reductase, the “% Inhibition Retinal Reductase” value stood at 62% +/− 2. Moreover, the “FOLD INCREASE IN RATE OF RETINOL LOSS” value in series [1] was determined as 3.4 fold.

As for `CC(C)=CCCC(C)=CC=O` [Citral], the “% Inhibition ARAT (100 μm)” value with ARAT came to 20%. The “FOLD INCREASE IN RATE OF RETINOL LOSS” value in series [1] amounted to 3.1 fold.

For `CN1CCN(C)C1=O` [Dimethyl Imidazolidinone], the “FOLD INCREASE IN RATE OF RETINOL LOSS” value in series [1] was 1.4 fold. For the same compound, the “% Inhibition Overall TG (−ROH/RE)” value in the series with TGase I was 22%.

As for `O=c1c(-c2ccc(O)cc2)coc2cc(O)ccc12` [Daidzein], the CRABP-II production in the series with CRABP-II is on record as 1.49+/−0.66. Also, the “% as Control” value in the series on CRABP-II was 513+/−227%. Besides, the “Retinol stability, % of retinol (OD reading) at 0 time” value is 82% in series [2] (8 h, 0.0001 %); 78% in series [2] (24 h, 0.0001 %); 76% in series [2] (48 h, 0.0001 %).

In the case of `COc1cc(C=O)ccc1O` [Vanillin], the “% Inhibition Retinal Reductase” value with Retinal Reductase amounted to 6%.

For `CCCCCCCCCCCCCC(=O)O` [Myristic Acid], the “% Inhibition Retinal Reductase” value in the series with Retinal Reductase amounted to 26%.

On to `CCCCCCCCCCCC(=O)N(C)CC(=O)O` [Lauroyl Sarcosine], for which, in the series on ARAT, the “% Inhibition ARAT (100 μm)” value worked out at 20%. In addition, the “FOLD INCREASE IN RATE OF RETINOL LOSS” value in series [1] is on record as 2.6 fold.

`CC(C)=CCC/C(C)=C/CO` [Geraniol]: in the series on ARAT (10 μm compound), the “% Inhibition ARAT (10 μm)” value was 13%. Moreover, the “% Inhibition ARAT (100 μm)” value in the series on ARAT is reported as 32%. In addition, in series [1], the “FOLD INCREASE IN RATE OF RETINOL LOSS” value stood at 1.3 fold.

As for DAMASCONE, the “FOLD INCREASE IN RATE OF RETINOL LOSS” value in series [1] was determined as 3.7 fold.

For the compound Phosphatidyl Choline, the “% Increase Retinol Dehydrogenase” value in the series with Retinol Dehydrogenase turned out to be 21% increase.

For `Oc1cccc2cccnc12` [8 OH QUINOLINE], the “FOLD INCREASE IN RATE OF RETINOL LOSS” value in series [1] came to 1.5 fold.

As for `CC1(C)[C@@H](OC(=O)CCC(=O)O)CC[C@]2(C)[C@H]3C(=O)C=C4[C@@H]5C[C@@](C)(C(=O)O)CC[C@]5(C)CC[C@@]4(C)[C@]3(C)CC[C@@H]12` [Carbenoxolone, reference compound], the “% Inhibition Retinal Reductase” value in the series with Retinal Reductase is given as 26% +/− 2.

Sphingomyelin: the “% Increase Retinol Dehydrogenase” value in the series with Retinol Dehydrogenase is recorded as 26% increase.

In the case of `O=c1c(-c2ccc(O)cc2)coc2cc(O)cc(O)c12` [Genistein], the “stimulation of CRABP-II” value with CRABP-II (1 μM alone) is given as “stimulated CRABP-II significantly”. In the series with CRABP-II, the CRABP-II production is 1.9+/−0.71 and the “% as Control” value is 655+/−247%. In addition, the “effect of flavonoid on instability of retinol” value in series [2] (up to 48 hours) is given as “marked increases in the instability of retinol”.

For the compound `CC1=C(/C=C/C(C)=C/C=C/C(C)=C/CO)C(C)(C)CCC1` [Retinol], the retinol degraded is listed as 8% in series [2] (8 h, 0.001 %); 14% in series [2] (24 h, 0.001 %); 19% in series [2] (48 h, 0.001 %). Further, the “Retinol stability, % of retinol (OD reading) at 0 time” value in series [2] (24 h, 0.001 %) came out at 86%; in series [2] (48 h, 0.001 %), 81%.

For `CCCCC/C=C\C/C=C\CCCCCCCC(=O)N(CCO)CCO` [Linoleoyl Diethanolamide], the “% Inhibition LRAT (10 μm)” value at LRAT (10 μm compound) is 11% +/− 9. For the same compound, the “% Inhibition LRAT (100 μm)” value on LRAT (100 μm compound) worked out at 51% +/− 15. The “FOLD INCREASE IN RATE OF RETINOL LOSS” value in series [1] was 3.0 fold. Further, in the series with TGase I, the “% Inhibition Overall TG (−ROH/RE)” value was determined as 59%.

For the compound `CC(=O)/C=C/C1C(C)=CCCC1(C)C` (stereo not drawn) [Alpha=Ionone], the “FOLD INCREASE IN RATE OF RETINOL LOSS” value in series [1] is reported as 1.3 fold. In addition, the IC50 at TGase I turned out to be 927 µM.

As to COCAMIDE DEA, the “FOLD INCREASE IN RATE OF RETINOL LOSS” value in series [1] was 1.9 fold.
